Where two headings read alike, the source gives them in different places.
Tests used:
Doca rats = assay: decrease of the systolic blood pressure in Doca rats; assay type: in vivo; conditions: Rattus norvegicus, oral, 2 × 3 mg/kg, with respect to original value, read-out: percent decrease of the systolic blood pressure
Protocol: (§1) The above results are confirmed by the results of an investigation of the action on the control of blood pressure. On oral administration of a dosage of 2 × 3 mg/kg of compound to Doca rats (Technique according to Green and co-workers, Am. J. Physiol., 1952, 170, p. 94) and to Grollman rats (Technique according to Grollman, Proc. Soc. Exp. Biol. Med., 1944, 57, p. 102), the percent decrease of the systolic blood pressure with respect to its original value is noted.

[1] = acute toxicity investigation in mice; conditions: mouse, in vivo
[2] = test system: uptake of ^3 H noradrenalin by the synaptosomes of a rat hypothalamus homogenate; assay: inhibition of the uptake of ^3 H noradrenalin by synaptosomes of a rat hypothalamus homogenate; assay type: biochemical; conditions: with respect to the control test
Excerpt: The compounds of the formula (I) are capable of modifying the accumulation of noradrenalin and particularly to inhibit the uptake of ^3 H noradrenalin by the synaptosomes of a rat hypothalamus homogenate prepared according to Banerjee, Snyder and Mechoulam (J. Pharmacol. Exp. Ther., 194, 1, 74, 1975). This inhibition of the uptake of ^3 H noradrenaline is a known property of various compounds having an activity on the central nervous system and/or on the sympathetic nervous system, particularly a hypotensive effect (J. Glowinski and J. Axelrod, effects of Drugs on the Disposition of ^3 H norepinephrine in the Rat Brain, Pharmacological Reviews, Vol. 18, No […], Part I, 1966).
They are expressed as percent inhibition of the uptake with respect to the control test.

Grollman rats = assay: decrease of the systolic blood pressure in Grollman rats; assay type: in vivo, rat; conditions: oral, 2 × 3 mg/kg, with respect to original value
Protocol: as §1

[3] = iv, read-out: LD50 (mg/kg) i.v.
[4] = po, read-out: LD50 (mg/kg) p.o.
[5] = ultimate molar concentration 5 × 10^-5 M
[6] = ultimate molar concentration 5 × 10^-6 M
[7] = ultimate molar concentration 5 × 10^-4 M

| SMILES | inhibition in vivo at 3 mg/kg (Doca rats) [%] | LD50 [1, 3] [mg/kg] | LD50 [1, 4] [mg/kg] | inhibition % of the uptake of ^3 H noradrenalin [2, 5] [%] | inhibition % of the uptake of ^3 H noradrenalin [2, 6] [%] | inhibition % of the uptake of ^3 H noradrenalin [2, 7] [%] | percent decrease of the systolic blood pressure (Grollman rats) [%] |
| --- | --- | --- | --- | --- | --- | --- | --- |
| Cc1cc(N(C)C(=N)NC(=N)N)no1 [Example 7] | 15 | 70 | > 1000 |  |  |  |  |
| Cc1conc1NC(=N)NC(=N)N [Example 8] |  |  |  | 55 | 36 |  |  |
| Cc1cc(NC(=N)NC(=N)N2CCN(C)CC2)no1 [Example 19] | 20 |  |  |  |  |  |  |
| Cc1noc(C)c1NC(=N)NC(=N)N [Example 22] |  | > 100 | > 1500 |  |  |  |  |
| CCCCNC(=N)NC(=N)Nc1c(C)noc1C [Example 23] |  |  | > 750 |  |  | 51 |  |
| Cc1noc(C)c1NC(=N)NC(=N)N(C)C [Example 24] |  |  | > 750 |  |  | 28.4 |  |
| Cc1noc(NC(=N)NC(=N)N)c1C [Example 25] | 20 | 20 | 300 | 45.5 |  |  |  |
| CCCCNC(=N)NC(=N)Nc1onc(C)c1C [Example 26] |  | 35 | 250 | 39.6 |  |  |  |
| CCCN1CCN(C(=N)NC(=N)Nc2cc(C)on2)CC1 [Example 28] | 18 |  | 400 | 20 |  | 60.2 | 18 |
| Cc1conc1NC(=N)NC(=N)N1CCN(C)CC1 [Example 29] | 15 |  | > 1000 | 65.8 | 30.8 |  | 15 |
| Cc1cc(NC(=N)NC(=N)N2CCNCC2)no1 [Example 30] | 10 |  | > 1000 |  |  | 51 |  |

Reference: patent publication US4103010A, “(3-Piperazinocarbonylimino-quanidino)-isoxazoles” (Aron S.A.R.L., priority 1975, dated 1978)
